Assay results published in PMC12261228 (ACS Pharmacology & Translational Science, 2025).
Where two headings read alike, the source gives them in different places.

Experiments:
CEM-DNR = test: MTS cytotoxicity assay, 72 h; type: cell-based; conditions: Homo sapiens, read-out: IC50 CEM-DNR
BJ = test: MTS cytotoxicity assay, 72 h; type: cell-based; conditions: Homo sapiens, read-out: IC50 BJ
HUVEC = test: MTS cytotoxicity assay, 72 h; type: cell-based; conditions: Homo sapiens, 3-day incubation, mean ± SD
K562-TAX = test: MTS cytotoxicity assay, 72 h; type: cell-based; conditions: read-out: IC50 K562-TAX
CCRF-CEM lymphoblasts = test: FACS analysis of cell cycle, apoptosis, mitosis and polyploidy; conditions: for Mitosis: phospho-Histone (Ser10); for Apoptosis: sub-G0/G1 DNA content, % of positive cells
HCT116 = test: MTS cytotoxicity assay, 72 h; type: cell-based; conditions: Homo sapiens, HCT-116, 72 h, read-out: IC50 HCT116
U2OS = test: MTS cytotoxicity assay, 72 h; type: cell-based, human; conditions: Homo sapiens, U2OS, 72 h
MRC-5 = test: MTS cytotoxicity assay, 72 h; type: cell-based; conditions: Homo sapiens, MRC5, 72 h, read-out: IC50 MRC-5
K562 = test: MTS cytotoxicity assay, 72 h; type: cell-based; conditions: Homo sapiens, K562, 72 h, read-out: IC50 K562
CCRF-CEM = test: MTS cytotoxicity assay, 72 h; type: cell-based; conditions: Homo sapiens, CCRF-CEM, 72 h
HCT116p53–/– = test: MTS cytotoxicity assay, 72 h; type: cell-based; conditions: read-out: IC50 HCT116p53–/–
A549 = test: MTS cytotoxicity assay, 72 h; type: cell-based; conditions: Homo sapiens, Fig. S22
Method: Cell suspensions were prepared and diluted according to the particular cell type and the expected target cell density (500 – 4,000 cells/well). The cells (30 μL/well) were seeded to 384-well clear Corning plates by MultiDrop Combi (Thermo Fisher Scientific, USA). After 24 h the cells were treated with tested compounds as well as with vehicle (DMSO) and high controls (2.67 μM of Actinomycin D and 100 μM Mitomycin C) using contact-free acoustic liquid handler ECHO 555 (Labcyte, USA). Compounds were analyzed at a concentration range from 0.012 μM to 50 μM. Treated cells were incubated at 37 °C in a 5% CO2 atmosphere of a humidified incubator for 72 h. At the end of the incubation period, aliquots of the MTS (Promega) solution prepared according to manufacturer's instructions were added to cells (https://worldwide.promega.com/resources/protocols/technical-bulletins/0/celltiter-96-aqueous-nonradioactive-cell-proliferation-assay-protocol/). After 1 – 4 h of the incubation period, the optical density (OD) at 490 nm was measured on a multimode plate reader EnVision (PerkinElmer, USA). The experiments were performed in technical duplicates and at least three biological replicates. […] The assay quality was monitored by determining the Z′-factor for each 384-well plate. The resistance index (RI), representing the reduction in compound activity on resistant cell lines, was calculated as RI = (IC50 of resistant cell lines, CEM-DNR, K562-TAX)/(IC50 of nonresistant counterparts, CCRF-CEM, K562). Similarly, the selectivity index (SI), indicating preferential cytotoxicity toward tumor cell lines, was calculated as SI = (mean IC50 of nontumor cell lines, BJ and MRC5)/(mean IC50 of cancer cell lines without resistant variants, CCRF-CEM, K562, HCT116, HCT116p53–/–, U2OS).

[1] = read-out: IC50 U2OS, MTS assay, 3-day incubation, mean ± SD
[2] = read-out: IC50 CCRF-CEM, MTS assay, 3-day incubation, mean ± SD of 3 experiments
[3] = normal fibroblasts, MTS assay, 3-day incubation, mean ± SD
[4] = MTS assay, 3-day incubation, mean ± SD
[5] = MTS assay, 3-day incubation, mean ± SD, read-out: IC50 U2OS
[6] = MTS assay, 3-day incubation, mean ± SD of 3 experiments, read-out: IC50 CCRF-CEM
[7] = daunorubicin-resistant, MTS assay, 3-day incubation, mean ± SD
[8] = paclitaxel-resistant, MTS assay, 3-day incubation, mean ± SD

Compound | IC50 (CEM-DNR) | IC50 (BJ) | IC50 (HUVEC) | IC50 (K562-TAX) | RI (resistance index) (panel of cell lines) | SI (selectivity index) (panel of cell lines) | G0/G1 (CCRF-CEM lymphoblasts; 1×IC50, 24 h) | G2/M (CCRF-CEM lymphoblasts; 1×IC50, 24 h) | Polyploid cells (CCRF-CEM lymphoblasts; 1×IC50, 24 h) | S (CCRF-CEM lymphoblasts; 1×IC50, 24 h) | Mitosis (CCRF-CEM lymphoblasts; 1×IC50, 24 h) | Apoptosis (CCRF-CEM lymphoblasts; 1×IC50, 24 h) | IC50 (BJ; [3]) | IC50 (HCT116; [4]) | IC50 (U2OS; [5]) | IC50 (MRC-5; [3]) | IC50 (K562; [4]) | IC50 (A549) | IC50 (CCRF-CEM; [6]) | IC50 (HCT116p53–/–; [4]) | also measured
COc1cc2c(c(OC)c1OC)-c1ccc(OC)c(=O)cc1[C@@H](NC(=O)CCCCCCCCCCC1=C3C(C)=CC(C)=[N+]3[B-](F)(F)n3c(C)cc(C)c31)CC2 [CB2] | 1.45 ± 0.06 µM | > 50 µM | 0.36 ± 0.035 µM | 0.58 ± 0.035 µM | 3.90 | >1.66 | 6.59% | 89.19% | 23.67% | 4.22% | 45.60% | 8.51% |  |  |  |  |  |  |  |  | cytotoxic activity across the cell line panel (in words) (panel of cell lines): selectively killed/affected suspension cell lines; G0/G1 (CCRF-CEM lymphoblasts; 5×IC50, 24 h): 5.2%; Polyploid cells (CCRF-CEM lymphoblasts; 5×IC50, 24 h): 26.18%; S (CCRF-CEM lymphoblasts; 5×IC50, 24 h): 1.29%; Mitosis (CCRF-CEM lymphoblasts; 5×IC50, 24 h): 79.51%; Apoptosis (CCRF-CEM lymphoblasts; 5×IC50, 24 h): 13.84%; IC50 (HCT116): > 50 µM; IC50 (U2OS; [1]): > 50 µM; IC50 (MRC-5): > 50 µM; IC50 (K562): 0.19 ± 0.04 µM; IC50 (CCRF-CEM; [2]): 0.33 ± 0.005 µM; IC50 (HCT116p53–/–): > 50 µM
COc1cc2c(c(OC)c1OC)-c1ccc(OC)c(=O)cc1[C@@H](n1cc(CCCCCCCCC3=C4C(C)=CC(C)=[N+]4[B-](F)(F)n4c(C)cc(C)c43)[n+](C)n1)CC2 [CB8] | 6.53 ± 0.458 µM | 36.9 ± 5.68 µM | 23.5 ± 1.29 µM | 6.35 ± 0.335 µM | 0.86 | 3.28 | 8.68% | 80.01% | 23.43% | 11.31% | 5.79% | 11.09% |  |  |  |  |  |  |  |  | G0/G1 (CCRF-CEM lymphoblasts; 5×IC50, 24 h): 9.49%; G2/M (CCRF-CEM lymphoblasts; 5×IC50, 24 h): 87.34%; Polyploid cells (CCRF-CEM lymphoblasts; 5×IC50, 24 h): 20.18%; S (CCRF-CEM lymphoblasts; 5×IC50, 24 h): 3.17%; Mitosis (CCRF-CEM lymphoblasts; 5×IC50, 24 h): 13.33%; Apoptosis (CCRF-CEM lymphoblasts; 5×IC50, 24 h): 3.98%; IC50 (HCT116): 8.81 ± 1.94 µM; IC50 (U2OS; [1]): 11.9 ± 1.11 µM; IC50 (MRC-5): 22.1 ± 1.22 µM; IC50 (K562): 7.83 ± 0.892 µM; IC50 (CCRF-CEM; [2]): 7.11 ± 1.14 µM; IC50 (HCT116p53–/–): 9.36 ± 0.87 µM
CC1=CC(C)=[N+]2C1=C(CCCCCCCCCCC(=O)O)c1c(C)cc(C)n1[B-]2(F)F [B2] |  |  |  |  |  |  |  |  |  |  |  |  | > 50 µM | > 50 µM | > 50 µM | > 50 µM | > 50 µM | > 50 µM | > 50 µM | > 50 µM | 
CNCCCCC1=C2C(C)=CC(C)=[N+]2[B-](F)(F)n2c(C)cc(C)c21 [B5] |  |  |  |  |  |  |  |  |  |  |  |  | > 50 µM | > 50 µM | > 50 µM | > 50 µM | > 50 µM | > 50 µM | 27.8 µM | > 50 µM | IC50 (CEM-DNR; [7]): 36.3 µM; IC50 (K562-TAX; [8]): 35.8 µM
CC1=CC(C)=[N+]2C1=C(CCCCBr)c1c(C)cc(C)n1[B-]2(F)F [B3, difluoro-1,3,5,7-tetramethyl-4-bora-3a,4a-diaza-s-indacene-8-yl)butyl bromide] |  |  |  |  |  |  |  |  |  |  |  |  | > 50 µM | > 50 µM | > 50 µM | > 50 µM | > 50 µM | > 50 µM | > 50 µM | > 50 µM | IC50 (CEM-DNR; [7]): > 50 µM; IC50 (K562-TAX; [8]): > 50 µM
